In patent publication US12233161B1, “Lipids and lipid nanoparticle formulations” (LONGUIDE BIOPHARMA CORPORATION, priority 2024, dated 2025):

Tested on: mice
Assay: In vivo delivery of FLuc-mRNA lipid nanoparticles in mice, in vivo imaging (IVIS)
Settings: for IVIS / % of organ targeting: Fluc-mRNA LNP; for organ targeting specificity (spleen or lung), in words: Table 3, Fluc-mRNA, various formulations
Experimental: After the preparation was completed, the preparation was injected intramuscularly (mice rectus femoris muscle of the thigh), intravenously (mice tail vein), or intraperitoneal injection or subcutaneous injection (subcutaneous on the back), with approximately 75 μL per mouse, for a total of 3 mice. After a certain time of injection, in vivo imaging (PerkinElmer, IVIS Lumina III) was performed. 10-15 minutes before imaging, 200 μL of 15 mg/mL D-Luciferin working solution was injected intraperitoneally, and the imaging analysis was performed using an in vivo imager.

[1] = route IM, organ not given, formulation, molar ratio and N/P as in the table
[2] = route IM, organ: liver, formulation, molar ratio and N/P as in the table
[3] = route IM, organ: lung, formulation, molar ratio and N/P as in the table
[4] = route IM, organ: muscle, formulation, molar ratio and N/P as in the table
[5] = route IM, organ: spleen, formulation, molar ratio and N/P as in the table
[6] = route IV, organ: body, formulation, molar ratio and N/P as in the table
[7] = route IV, organ: liver, formulation, molar ratio and N/P as in the table
[8] = route IV, organ: lung, formulation, molar ratio and N/P as in the table
[9] = route IV, organ: spleen, formulation, molar ratio and N/P as in the table
[10] = route IM, 1 h (live), DSPE-PEG5000:DSPC:Chol:compound 1.40:11.15:38.95:48.50, N/P 30
[11] = route IM, 1 h (lung), DSPE-PEG5000:DSPC:Chol:compound 1.40:11.15:38.95:48.50, N/P 30
[12] = route IM, 1 h (spleen), DSPE-PEG5000:DSPC:Chol:compound 1.40:11.15:38.95:48.50, N/P 30
[13] = route IM, 2 h (live), DSPE-PEG5000:DSPC:Chol:compound 1.40:11.15:38.95:48.50, N/P 30
[14] = route IM, 2 h (lung), DSPE-PEG5000:DSPC:Chol:compound 1.40:11.15:38.95:48.50, N/P 30
[15] = route IM, 2 h (spleen), DSPE-PEG5000:DSPC:Chol:compound 1.40:11.15:38.95:48.50, N/P 30
[16] = route IM, 3 h (live), DSPE-PEG5000:DSPC:Chol:compound 1.40:11.15:38.95:48.50, N/P 30
[17] = route IM, 3 h (lung), DSPE-PEG5000:DSPC:Chol:compound 1.40:11.15:38.95:48.50, N/P 30
[18] = route IM, 3 h (spleen), DSPE-PEG5000:DSPC:Chol:compound 1.40:11.15:38.95:48.50, N/P 30
[19] = route IM, 6 h (live), DSPE-PEG5000:DSPC:Chol:compound 1.40:11.15:38.95:48.50, N/P 30
[20] = route IM, 6 h (lung), DSPE-PEG5000:DSPC:Chol:compound 1.40:11.15:38.95:48.50, N/P 30
[21] = route IM, 6 h (spleen), DSPE-PEG5000:DSPC:Chol:compound 1.40:11.15:38.95:48.50, N/P 30
[22] = route IH, organ: liver, DSPE-PEG5000:DSPC:Chol:compound 1.40:11.15:38.95:48.50, N/P 30
[23] = route IH, organ: lung, DSPE-PEG5000:DSPC:Chol:compound 1.40:11.15:38.95:48.50, N/P 30
[24] = route IH, organ: spleen, DSPE-PEG5000:DSPC:Chol:compound 1.40:11.15:38.95:48.50, N/P 30

In the case of `CCCCCCCCC(CCCCCC)C(=O)OCCCCCCNC(=O)C(O)CN(CCCN(CC(O)C(=O)NCCCCCCOC(=O)C(CCCCCC)CCCCCCCC)CC(O)C(=O)NCCCCCCOC(=O)C(CCCCCC)CCCCCCCC)CCCN(CC(O)C(=O)NCCCCCCOC(=O)C(CCCCCC)CCCCCCCC)CC(O)C(=O)NCCCCCCOC(=O)C(CCCCCC)CCCCCCCC` (stereo not shown) [Compound L0372], the IVIS [1] is reported as 7.60E+06 and the IVIS (route IV, organ not given, formulation, molar ratio and N/P as in the table) is reported as 4.83E+08.
For `CCCCCCCC(CCCCCCC)OC(=O)CCCNC(=O)C(O)CN(CCCN(CC(O)C(=O)NCCCC(=O)OC(CCCCCCC)CCCCCCC)CC(O)C(=O)NCCCC(=O)OC(CCCCCCC)CCCCCCC)CCCN(CC(O)C(=O)NCCCC(=O)OC(CCCCCCC)CCCCCCC)CC(O)C(=O)NCCCC(=O)OC(CCCCCCC)CCCCCCC` (stereo not shown) [Compound L0384], the “% of organ targeting” value [2] was 29.97%, the IVIS [2] was 2.35E+05 and the “% of organ targeting” value [3] was 13.02%. For the same compound, the IVIS [3] was 1.02E+05, the IVIS [4] was 2.75E+07 and the “% of organ targeting” value [5] was 57.01%. The IVIS [5] was 4.47E+05, the IVIS [6] was 4.54E+08 and the “% of organ targeting” value [7] was 54.57%. For the same compound, the IVIS [7] was 1.50E+08, the “% of organ targeting” value [8] was 0.39% and the IVIS [8] was 1.09E+06. For the same compound, the “% of organ targeting” value [9] was 45.03%, the IVIS [9] was 1.24E+08 and the “organ targeting specificity (spleen or lung), in words” value (“organ targeting specificity” for short) was “strong targeting specificity to deliver to spleen”.
`CCCCCCCCCCCCCCN(C)C(=O)C(O)CN(CCCN(C)CCCN(CC(O)C(=O)N(C)CCCCCCCCCCCCCC)CC(O)C(=O)N(C)CCCCCCCCCCCCCC)CC(O)C(=O)N(C)CCCCCCCCCCCCCC` (stereo not shown) [Compound L0355] was tested, and the IVIS [1] was 2.41E+06, the IVIS [6] was 9.52E+06 and the “% of organ targeting” value [7] was 1.66%. For the same compound, the IVIS [7] was 2.63E+05, the “% of organ targeting” value [8] was 84.86% and the IVIS [8] was 1.34E+07. The “% of organ targeting” value [9] was 13.48% and the IVIS [9] was 2.13E+06.
`CCCCCCCCCCOC(=O)CCCNC(=O)C(O)CN(CCN(C)CCN(CC(O)C(=O)NCCCC(=O)OCCCCCCCCCC)CC(O)C(=O)NCCCC(=O)OCCCCCCCCCC)CC(O)C(=O)NCCCC(=O)OCCCCCCCCCC` (stereo not shown) [Compound L0386] was tested, and the IVIS [1] was 1.91E+05, the IVIS [6] was 6.49E+07 and the “% of organ targeting” value [7] was 1.32%. For the same compound, the IVIS [7] was 2.54E+06, the “% of organ targeting” value [8] was 96.51% and the IVIS [8] was 1.86E+08. For the same compound, the “% of organ targeting” value [9] was 2.17%, the IVIS [9] was 4.18E+06 and the “organ targeting specificity” value was “more selective towards the lung”.
For `CCCCCCCCC(CCCCCC)C(=O)OCCCCNC(=O)C(O)CN(CCCN(C)CCCN(CC(O)C(=O)NCCCCOC(=O)C(CCCCCC)CCCCCCCC)CC(O)C(=O)NCCCCOC(=O)C(CCCCCC)CCCCCCCC)CC(O)C(=O)NCCCCOC(=O)C(CCCCCC)CCCCCCCC` (stereo not shown) [Compound L0376], the “% of organ targeting” value [2] was 30.06%, the IVIS [2] was 2.21E+05 and the “% of organ targeting” value [3] was 5.80%. For the same compound, the IVIS [3] was 4.27E+04, the IVIS [4] was 2.06E+07 and the “% of organ targeting” value [5] was 64.14%. For the same compound, the IVIS [5] was 4.72E+05, the IVIS [6] was 5.58E+07 and the “% of organ targeting” value [7] was 14.62%. The IVIS [7] was 1.64E+07, the “% of organ targeting” value [8] was 20.78% and the IVIS [8] was 2.32E+07. The “% of organ targeting” value [9] was 64.60%, the IVIS [9] was 7.23E+07 and the “organ targeting specificity” value was “strong targeting specificity to deliver to spleen”.
For `CCCCCCCCC(CCCCCC)C(=O)NCCOC(=O)C(O)CN(CCCN(C)CCCN(CC(O)C(=O)OCCNC(=O)C(CCCCCC)CCCCCCCC)CC(O)C(=O)OCCNC(=O)C(CCCCCC)CCCCCCCC)CC(O)C(=O)OCCNC(=O)C(CCCCCC)CCCCCCCC` (stereo not shown) [Compound L0373], the IVIS [1] was 8.38E+06, the IVIS [6] was 7.79E+07 and the “% of organ targeting” value [7] was 11.58%. The IVIS [7] was 9.41E+06, the “% of organ targeting” value [8] was 13.53% and the IVIS [8] was 1.10E+07. The “% of organ targeting” value [9] was 74.89% and the IVIS [9] was 6.08E+07.
With `CCCCCCCCCCCCCCN(C)C(=O)C(O)CN(CCN(C)CCN(CC(O)C(=O)N(C)CCCCCCCCCCCCCC)CC(O)C(=O)N(C)CCCCCCCCCCCCCC)CC(O)C(=O)N(C)CCCCCCCCCCCCCC` (stereo not shown) [Compound L0356] the IVIS [1] was 1.62E+05, the IVIS [6] was 2.19E+06 and the “% of organ targeting” value [7] was 7.17%. The IVIS [7] was 1.12E+05, the “% of organ targeting” value [8] was 75.97% and the IVIS [8] was 1.18E+06. The “% of organ targeting” value [9] was 16.86% and the IVIS [9] was 2.63E+05.
In the case of `CCCCCCC(CCCCCC)C(=O)OCCCCNC(=O)C(O)CN(CCN(C)CCN(CC(O)C(=O)NCCCCOC(=O)C(CCCCCC)CCCCCC)CC(O)C(=O)NCCCCOC(=O)C(CCCCCC)CCCCCC)CC(O)C(=O)NCCCCOC(=O)C(CCCCCC)CCCCCC` (stereo not shown) [Compound L0368], the “% of organ targeting” value [10] is reported as 39.42%, the IVIS [10] is reported as 3.95E+05 and the “% of organ targeting” value [11] is reported as 5.12%. The IVIS [11] was 5.13E+04, the IVIS (route IM, 1 h (muscle), DSPE-PEG5000:DSPC:Chol:compound 1.40:11.15:38.95:48.50, N/P 30) was 8.19E+07 and the “% of organ targeting” value [12] was 42.92%. The IVIS [12] was 4.30E+05, the “% of organ targeting” value [13] was 70.91% and the IVIS [13] was 6.97E+06. For the same compound, the “% of organ targeting” value [14] was 1.59%, the IVIS [14] was 1.57E+05 and the IVIS (route IM, 2 h (muscle), DSPE-PEG5000:DSPC:Chol:compound 1.40:11.15:38.95:48.50, N/P 30) was 2.25E+08. The “% of organ targeting” value [15] was 26.79%, the IVIS [15] was 2.64E+06 and the “% of organ targeting” value [16] was 51.88%. The IVIS [16] was 5.57E+06, the “% of organ targeting” value [17] was 1.77% and the IVIS [17] was 1.89E+05. The IVIS (route IM, 3 h (muscle), DSPE-PEG5000:DSPC:Chol:compound 1.40:11.15:38.95:48.50, N/P 30) was 5.02E+08, the “% of organ targeting” value [18] was 27.68% and the IVIS [18] was 2.97E+06. The “% of organ targeting” value [19] was 52.87%, the IVIS [19] was 1.53E+07 and the “% of organ targeting” value [20] was 1.75%. For the same compound, the IVIS [20] was 5.04E+05, the IVIS (route IM, 6 h (muscle), DSPE-PEG5000:DSPC:Chol:compound 1.40:11.15:38.95:48.50, N/P 30) was 1.32E+08 and the “% of organ targeting” value [21] was 42.92%. The IVIS [21] was 1.24E+07, the IVIS [1] was 9.91E+07 and the IVIS [6] was 6.34E+07. The “% of organ targeting” value [7] was 18.05%, the IVIS [7] was 1.00E+07 and the “% of organ targeting” value [8] was 7.99%. The IVIS [8] was 4.43E+06, the “% of organ targeting” value [9] was 73.95% and the IVIS [9] was 4.10E+07.
With `CCCCCCC(CCCCCC)C(=O)NCCOC(=O)C(O)CN(CCN(C)CCN(CC(O)C(=O)OCCNC(=O)C(CCCCCC)CCCCCC)CC(O)C(=O)OCCNC(=O)C(CCCCCC)CCCCCC)CC(O)C(=O)OCCNC(=O)C(CCCCCC)CCCCCC` (stereo not shown) [Compound L0362] the IVIS (route IH, organ: body, DSPE-PEG5000:DSPC:Chol:compound 1.40:11.15:38.95:48.50, N/P 30) was 1.38E+08, the “% of organ targeting” value [22] was 62.89% and the IVIS [22] was 1.80E+07. The “% of organ targeting” value [23] was 1.15%, the IVIS [23] was 3.28E+05 and the “% of organ targeting” value [24] was 33.19%. For the same compound, the IVIS [24] was 9.50E+06, the “% of organ targeting” value [2] was 44.30% and the IVIS [2] was 2.62E+07. For the same compound, the “% of organ targeting” value [3] was 0.77%, the IVIS [3] was 4.55E+05 and the IVIS [4] was 3.43E+08. The “% of organ targeting” value [5] was 35.43% and the IVIS [5] was 2.09E+07.
In the case of `CCCCCCCCCCOC(=O)CCCNC(=O)C(O)CN(CCCN(C)CCCN(CC(O)C(=O)NCCCC(=O)OCCCCCCCCCC)CC(O)C(=O)NCCCC(=O)OCCCCCCCCCC)CC(O)C(=O)NCCCC(=O)OCCCCCCCCCC` (stereo not shown) [Compound L0385], the IVIS [1] is reported as 1.14E+06, the IVIS [6] is reported as 8.17E+07 and the “% of organ targeting” value [7] is reported as 0.90%. The IVIS [7] was 2.51E+06, the “% of organ targeting” value [8] was 98.40% and the IVIS [8] was 2.74E+08. For the same compound, the “% of organ targeting” value [9] was 0.70%, the IVIS [9] was 1.94E+06 and the “organ targeting specificity” value was “more selective towards the lung”.
